Measured values taken from US20260347364A1, “PYRAZOLO[4,3-F]QUINAZOLINE DERIVATIVES AS MODULATORS OF G12D MUTANT KRAS USEFUL FOR THE TREATMENT OF CANCER” (JAZZ PHARMACEUTICALS IRELAND LTD., priority 2023, published 2026).

How the values were obtained:
KRAS G12D = molecular target: T1, KRAS G12D (Homo sapiens, UniProt P01116, G12D); test: HTRF nucleotide exchange assay, KRAS G12D; format: biochemical; details: HTRF nucleotide exchange assay (NEA), class symbols
T1 construct: aa1-188 KRAS WT, HRAS WT, NRAS WT, or KRAS containing the G12D

KRAS G12V = molecular target: T2, KRAS G12V (Homo sapiens, UniProt P01116, G12V); test: HTRF nucleotide exchange assay, KRAS G12V; format: biochemical; details: HTRF nucleotide exchange assay (NEA), class symbols
T2 construct: 4 nM KRAS; aa1-188 containing the G12V, G12C, G12A or G12S amino acid substitution
Procedure: (§1) HTRF Nucleotide Exchange Assay Method
The capacity of compounds to bind KRAS G12D, other KRAS mutants and wildtype RAS isoforms was quantified using a HTRF nucleotide exchange assay. Recombinant human RAS protein (2 nM; aa1-188 KRAS WT, HRAS WT, NRAS WT, or KRAS containing the G12D, G13D or Q61H amino acid substitutions, or 4 nM KRAS; aa1-188 containing the G12V, G12C, G12A or G12S amino acid substitution, an N-terminal 6× His-tag and leader sequence), and 2 nM Europium-labeled anti-6× His antibody were mixed in assay buffer (10 mM HEPES pH 7.3, 150 mM NaCl, 5 mM MgCl2, 0.05% BSA, 0.0025% NP-40 and 100 mM KF) with various concentrations of compound in a 384-well plate and a volume of 5 μL. After a 60-minute incubation at room temperature, 5 μl of 200 nM EDA-GTP-DY647P1 (diluted in assay buffer) was added to the plate. Following 30-minute incubation at room temperature, time-resolved fluorescence was measured on a PerkinElmer Envision plate reader. DMSO (0.3%) and unlabeled GDP (1 μM) or equivalent tool compound were used to generate the Max and Min assay signals, respectively. Data was analysed using a four-parameter logistic model to calculate IC50 values, with at least two independent replicates were performed for each compound. The results are presented as IC50s in Table 29 where “A” corresponds to an IC50 ≤10 nM, “B” to an IC50 >10 nM up to 100 nM, “C” is >100 nM up to 10 μM, “D” represents <49% inhibition at 10 μM and ND=not determined: […]

KRAS G12A = molecular target: T3, KRAS G12A (Homo sapiens, UniProt P01116, G12A); test: HTRF nucleotide exchange assay, KRAS G12A; format: biochemical; details: HTRF nucleotide exchange assay (NEA), class symbols
T3 construct: 4 nM KRAS; aa1-188 containing the G12V, G12C, G12A or G12S amino acid substitution
Procedure: as §1
(§2) The capacity of compounds to bind KRAS G12D, other KRAS mutants and wildtype RAS isoforms was quantified using a HTRF nucleotide exchange assay. Recombinant human RAS protein (2 nM; aa1-188 KRAS WT, HRAS WT, NRAS WT, or KRAS containing the G12D, G13D or Q61H amino acid substitutions, or 4 nM KRAS; aa1-188 containing the G12V, G12C, G12A or G12S amino acid substitution, an N-terminal 6× His-tag and leader sequence), and 2 nM Europium-labeled anti-6× His antibody were mixed in assay buffer (10 mM HEPES pH 7.3, 150 mM NaCl, 5 mM MgCl2, 0.05% BSA, 0.0025% NP-40 and 100 mM KF) with various concentrations of compound in a 384-well plate and a volume of 5 μL. After a 60-minute incubation at room temperature, 5 μl of 200 nM EDA-GTP-DY647P1 (diluted in assay buffer) was added to the plate. Following 30-minute incubation at room temperature, time-resolved fluorescence was measured on a PerkinElmer Envision plate reader. DMSO (0.3%) and unlabeled GDP (1 μM) or equivalent tool compound were used to generate the Max and Min assay signals, respectively. Data was analysed using a four-parameter logistic model to calculate IC50 values, with at least two independent replicates were performed for each compound. […]

KRAS G12S = molecular target: T4, KRAS G12S (Homo sapiens, UniProt P01116, G12S); test: HTRF nucleotide exchange assay, KRAS G12S; format: biochemical; details: HTRF nucleotide exchange assay (NEA), class symbols
T4 construct: 4 nM KRAS; aa1-188 containing the G12V, G12C, G12A or G12S amino acid substitution
Procedure: as §1, §2

KRAS WT = molecular target: T5, KRAS WT (Homo sapiens, UniProt P01116); test: HTRF nucleotide exchange assay, KRAS WT; format: biochemical; details: HTRF nucleotide exchange assay (NEA), class symbols
T5 construct: aa1-188 KRAS WT

[1] = Metabolic stability in human liver hepatocytes (substrate depletion, intrinsic clearance); format: in vitro ADME; details: 37° C., Williams E Media, LC-MS/MS depletion
Text: Determining the in vitro metabolic stability of a new chemical entity (NCE) is a very useful tool within drug discovery. A metabolic stability study will determine the in vitro intrinsic clearance (CLint) of a compound. The CLint value represents a measure of enzyme activity toward an NCE and is independent of other physiological factors such as blood flow. Determination of CLint within drug discovery helps to identify metabolic liabilities within a compound series, and ultimately assist in the identification of compounds with improved metabolic stability. The CLint value determined in vitro can be used to predict in vivo clearance (using species specific scaling factors) in pre-clinical species and ultimately in human. The liver is the primary organ involved in drug metabolism, of which there are two pathways-Phase I and Phase II. Phase I metabolism is primarily oxidative with the majority of these oxidations catalysed by cytochrome P450 enzymes (CYPs) which are located in the smooth endoplasmic reticulum (ER) in the liver. Phase II metabolism is catalysed by various conjugative enzymes which are located mainly in the ER and the cytosol. The in vitro systems used to study drug metabolism are mainly subcellular fractions such as liver microsomes or whole cells (hepatocytes) isolated from the liver. Hepatocytes, being whole cells, contain both Phase I and Phase II metabolizing enzymes and produce their own cofactors. This assay determines the metabolic stability of test compounds in human liver hepatocytes using the substrate depletion approach. The lower limit of the assay is a T1/2 >462 min and a CLint […]. Therefore the upper limit of the assay is 277 μL/min/106 cells. Any CLint value higher than this should be given an out of range value. Hepatocytes were plated in Williams E Media with added L-glutamine, compounds were added as 1 mM DMSO solution and incubated at 37° C. Compound depletion was measured by LC-MS/MS at multiple time points following quenching with cold acetonitrile. CLint was calculated from the following equation:
CLint(μl/min/106cells)=(In(2)/T1/2)*1000/cell density(10^6cells/mL)

T5 sequence (P01116 1-188 isoform P01116-2): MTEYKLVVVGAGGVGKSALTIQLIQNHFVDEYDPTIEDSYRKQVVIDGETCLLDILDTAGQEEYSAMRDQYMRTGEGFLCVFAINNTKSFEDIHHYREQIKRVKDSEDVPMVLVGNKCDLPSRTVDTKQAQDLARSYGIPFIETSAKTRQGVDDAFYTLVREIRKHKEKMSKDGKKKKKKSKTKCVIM
T1 sequence (P01116 1-188 isoform P01116-2 G12D): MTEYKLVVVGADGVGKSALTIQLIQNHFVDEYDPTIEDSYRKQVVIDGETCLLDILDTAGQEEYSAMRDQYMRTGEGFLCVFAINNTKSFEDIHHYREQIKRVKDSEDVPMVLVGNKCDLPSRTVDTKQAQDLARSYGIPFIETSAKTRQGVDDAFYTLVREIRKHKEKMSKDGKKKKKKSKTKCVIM
T2 sequence (P01116 1-188 isoform P01116-2 G12V): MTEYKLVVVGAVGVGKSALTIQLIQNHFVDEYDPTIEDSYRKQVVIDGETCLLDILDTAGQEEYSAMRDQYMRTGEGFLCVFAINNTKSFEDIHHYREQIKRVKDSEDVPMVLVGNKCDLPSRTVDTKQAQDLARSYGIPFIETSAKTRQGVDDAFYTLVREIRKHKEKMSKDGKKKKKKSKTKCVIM
T4 sequence (P01116 1-188 isoform P01116-2 G12S): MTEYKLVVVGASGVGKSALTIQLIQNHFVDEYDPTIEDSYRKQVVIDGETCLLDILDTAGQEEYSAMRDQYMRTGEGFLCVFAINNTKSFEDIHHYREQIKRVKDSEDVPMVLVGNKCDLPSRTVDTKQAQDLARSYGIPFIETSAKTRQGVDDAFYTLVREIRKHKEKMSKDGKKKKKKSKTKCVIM
T3 sequence (P01116 1-188 isoform P01116-2 G12A): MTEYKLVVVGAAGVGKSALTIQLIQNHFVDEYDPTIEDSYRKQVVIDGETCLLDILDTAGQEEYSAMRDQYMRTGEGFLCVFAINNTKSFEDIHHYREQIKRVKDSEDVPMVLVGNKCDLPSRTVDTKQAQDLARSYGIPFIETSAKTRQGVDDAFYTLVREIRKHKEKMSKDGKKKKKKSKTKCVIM

Row | SMILES | IC50 (KRAS G12D) | IC50 (KRAS G12V) | IC50 (KRAS G12A) | IC50 (KRAS G12S) | IC50 (KRAS WT) | hepatocyte CLint [1]
1 | CCc1c(F)ccc2cc(O)cc(-c3c(C)c4nc(OC[C@@]56CCCN5C[C@H](F)C6)nc(N5CCOCC(C)(O)C5)c4c4cn(C)nc34)c12 (mixture of isomers) [Example 105, 4-[4-(8-ethyl-7-fluoro-3-hydroxy-1-naphthyl)-2,5-dimethyl-7-[rac-(2R)-2-fluoro-1,2,3,5,6,7-hexahydropyrrolizin-8-yl]methoxy]pyrazolo[4,3-f]quinazolin-9-yl]-6-methyl-1,4-oxazepan-6-ol] | ≤ 0.01 µM | ≤ 0.01 µM | ≤ 0.01 µM | 0.01 to 0.1 µM | ≤ 0.01 µM | 
2 | CCc1c(F)ccc2cc(O)cc(-c3cc4nc(OC[C@@]56CCCN5C[C@H](F)C6)nc(N5CCCC(C)(O)C5)c4c4cn(C)nc34)c12 (mixture of isomers) [Example 7, 1-[4-(8-ethyl-7-fluoro-3-hydroxy-1-naphthyl)-2-methyl-7-[[rac-(2R,8S)-2-fluoro-1,2,3,5,6,7-hexahydropyrrolizin-8-yl]methoxy]pyrazolo[4,3-f]quinazolin-9-yl]-3-methyl-piperidin-3-ol] | ≤ 0.01 µM | ≤ 0.01 µM |  |  | ≤ 0.01 µM | 
3 | CCc1c(F)ccc2cc(O)cc(-c3cc4nc(OC[C@@]56CCCN5C[C@H](F)C6)nc(N5CCCOCC5)c4c4cn(C)nc34)c12 [Example 1, 5-ethyl-6-fluoro-4-[2-methyl-9-(1,4-oxazepan-4-yl)-7-[[(2R,8S)-2-fluoro-1,2,3,5,6,7-hexahydropyrrolizin-8-yl]methoxy]pyrazolo[4,3-f]quinazolin-4-yl]naphthalen-2-ol] | ≤ 0.01 µM | 0.01 to 0.1 µM | ≤ 0.01 µM | 0.01 to 0.1 µM | ≤ 0.01 µM | 73.3 µL/min/1e6 cells
4 | C#Cc1c(F)ccc2cc(O)cc(-c3cc4nc(OC[C@@]56CCCN5C[C@H](F)C6)nc(N5CCCOCC5)c4c4cn(C)nc34)c12 [Example 2, 5-ethynyl-6-fluoro-4-[2-methyl-9-(1,4-oxazepan-4-yl)-7-[[(2R,8S)-2-fluoro-1,2,3,5,6,7-hexahydropyrrolizin-8-yl]methoxy]pyrazolo[4,3-f]quinazolin-4-yl]naphthalen-2-ol] | ≤ 0.01 µM |  |  |  | ≤ 0.01 µM | 54.2 µL/min/1e6 cells
5 | CCc1c(F)ccc2cc(O)cc(-c3cc4nc(OC[C@@]56CCCN5C[C@H](F)C6)nc(N5CCCCCC5)c4c4cn(C)nc34)c12 [Example 9, 4-[9-(azepan-1-yl)-2-methyl-7-[[(2R,8S)-2-fluoro-1,2,3,5,6,7-hexahydropyrrolizin-8-yl]methoxy]pyrazolo[4,3-f]quinazolin-4-yl]-5-ethyl-6-fluoro-naphthalen-2-ol] | 0.1 to 10 µM |  |  |  | 0.1 to 10 µM | 42.5 µL/min/1e6 cells
6 | C#Cc1c(F)ccc2cc(O)cc(-c3cc4nc(OC[C@@]56CCCN5C[C@H](F)C6)nc(N5CCCCCC5)c4c4cn(C)nc34)c12 [Example 12, 4-[9-(azepan-1-yl)-2-methyl-7-[[(2R,8S)-2-fluoro-1,2,3,5,6,7-hexahydropyrrolizin-8-yl]methoxy]pyrazolo[4,3-f]quinazolin-4-yl]-5-ethynyl-6-fluoro-naphthalen-2-ol] | 0.01 to 0.1 µM |  |  |  | 0.01 to 0.1 µM | 47.8 µL/min/1e6 cells
7 | CCc1c(F)ccc2cc(O)cc(-c3cc4nc(OC[C@@]56CCCN5C[C@H](F)C6)nc(N5CC6CCC5CN6)c4c4cn(C)nc34)c12 (stereo partly drawn) [Example 14, 4-[9-(2,5-diazabicyclo[2.2.2]octan-2-yl)-2-methyl-7-[[(2R,8S)-2-fluoro-1,2,3,5,6,7-hexahydropyrrolizin-8-yl]methoxy]pyrazolo[4,3-f]quinazolin-4-yl]-5-ethyl-6-fluoro-naphthalen-2-ol] | ≤ 0.01 µM | 0.01 to 0.1 µM |  |  | 0.1 to 10 µM | 
8 | CCc1c(F)ccc2cc(O)cc(-c3c(C)c4nc(OCC5(CF)COC5)nc(N5CC6CCC5CN6)c4c4cn(C)nc34)c12 (stereo not drawn) [Example 240, 4-[9-(2,5-diazabicyclo[2.2.2]octan-2-yl)-7-[[3-(fluoromethyl)oxetan-3-yl]methoxy]-2,5-dimethyl-pyrazolo[4,3-f]quinazolin-4-yl]-5-ethyl-6-fluoro-naphthalen-2-ol] | 0.01 to 0.1 µM |  |  |  | 0.1 to 10 µM | 
9 | CCc1c(F)ccc2cc(O)cc(-c3c(C)c4nc(OCC5(C#N)CCOC5)nc(N5CC6CCC(C5)N6)c4c4cn(C)nc34)c12 (stereo not drawn) [Example 241, 3-[[9-(3,8-diazabicyclo[3.2.1]octan-3-yl)-4-(8-ethyl-7-fluoro-3-hydroxy-1-naphthyl)-2,5-dimethyl-pyrazolo[4,3-f]quinazolin-7-yl]oxymethyl]tetrahydrofuran-3-carbonitrile] | ≤ 0.01 µM |  |  |  | 0.1 to 10 µM | 
10 | CCc1c(F)ccc2cc(O)cc(-c3c(C)c4nc(OCC5(CO)CC5)nc(N5CC6CCC(C5)N6)c4c4cn(C)nc34)c12 [Example 242, 4-[9-(3,8-diazabicyclo[3.2.1]octan-3-yl)-7-[[1-(hydroxymethyl)cyclopropyl]methoxy]-2,5-dimethyl-pyrazolo[4,3-f]quinazolin-4-yl]-5-ethyl-6-fluoro-naphthalen-2-ol] | ≤ 0.01 µM |  |  |  | 0.1 to 10 µM | 
11 | CCc1c(F)ccc2cc(O)cc(-c3c(C)c4nc(OC[C@@]56CCCN5C[C@H](F)C6)nc(N5CCCn6nc(COC)cc6C5)c4c4cn(C)nc34)c12 [Example 243] | ≤ 0.01 µM |  |  |  | ≤ 0.01 µM | 
12 | CCc1c(F)ccc2cc(O)cc(-c3c(F)c4nc(OCC5(C#N)CCOC5)nc(N5CCCNC(=O)C5)c4c4cn(C)nc34)c12 (stereo not drawn) [Example 244, 3-[[4-(8-ethyl-7-fluoro-3-hydroxy-1-naphthyl)-5-fluoro-2-methyl-9-(3-oxo-1,4-diazepan-1-yl)pyrazolo[4,3-f]quinazolin-7-yl]oxymethyl]tetrahydrofuran-3-carbonitrile] | 0.1 to 10 µM |  |  |  | 0.1 to 10 µM | 
13 | CCc1c(F)ccc2cc(O)cc(-c3c(F)c4nc(OCC5(CN(C)C)CC5)nc(N5CCOC[C@@](C)(O)C5)c4c4cn(C)nc34)c12 [Example 245, (6S)-4-[7-[[1-[(dimethylamino)methyl]cyclopropyl]methoxy]-4-(8-ethyl-7-fluoro-3-hydroxy-1-naphthyl)-5-fluoro-2-methyl-pyrazolo[4,3-f]quinazolin-9-yl]-6-methyl-1,4-oxazepan-6-ol] | ≤ 0.01 µM |  |  |  | ≤ 0.01 µM | 
14 | CCc1c(F)ccc2cc(O)cc(-c3c(F)c4nc(OCC5(CN6CC(C)OC(C)C6)CC5)nc(N5CCOCC(C)(O)C5)c4c4cn(C)nc34)c12 (stereo not drawn) [Example 246, 4-[7-[[1-[(2,6-dimethylmorpholin-4-yl)methyl]cyclopropyl]methoxy]-4-(8-ethyl-7-fluoro-3-hydroxy-1-naphthyl)-5-fluoro-2-methyl-pyrazolo[4,3-f]quinazolin-9-yl]-6-methyl-1,4-oxazepan-6-ol] | ≤ 0.01 µM |  |  |  | ≤ 0.01 µM | 
15 | C#Cc1c(F)ccc2cc(O)cc(-c3ncc4c(N5CCCCCC5)nc(OC[C@@]56CCCN5C[C@H](F)C6)nc4c3F)c12 [WO2022248885 Example 84, reference compound] |  |  |  |  |  | 95.6 µL/min/1e6 cells
16 | C#Cc1c(F)ccc2cc(O)cc(-c3ccc4c(N5CCCOCC5)nc(OC[C@@]56CCCN5C[C@H](F)C6)nc4c3F)c12 [WO2022258974 Example 26, reference compound] |  |  |  |  |  | 94.6 µL/min/1e6 cells
